Reference: article PMC5634595, “Properties of halogenated and sulfonated porphyrins relevant for the selection of photosensitizers in anticancer and antimicrobial therapies” (PLoS ONE, 2017)

Tests used:
[1] = UV/Vis absorption spectra, molar absorption coefficients; type: physicochemical; conditions: EtOH
Protocol: All commercial chemicals and reagents were of analytical grade and were purchased from Sigma-Aldrich. UV/Vis absorption spectra were recorded in a Hewlett Packard HP8453 spectrophotometer. Solutions containing samples of photosensitizers were dissolved in the selected solvent in quartz cuvettes. Using measured absorbance for various concentrations of porphyrin in ethanol, the molar absorption coefficients were determined from Beer’s law.

[2] = n-Octanol/PBS partition coefficient, shake-flask; type: physicochemical; conditions: modified shake-flask
Protocol: The n-octanol/PBS partition coefficients were measured following shake-flask method with minor modifications. The photosensitizers were dissolved in n-octanol previously saturated with a solution of PBS. The same volume of PBS saturated with n-octanol was added and mixed on a vortex device and then the phases were separated by centrifugation. Next, the PBS/n-octanol phase was taken and diluted to obtain 0.5% of PBS/n-octanol content in the final solution. This solution was left into the ultrasonic bath. The fluorescence of each solution was measured using Fluorescence Spectrometer LS 55 (Perkin Elmer) and compared with calibration curve to obtain the concentration of the photosensitizer. Partition coefficients were calculated from the ratio coct/cPBS, where coct and cPBS are the concentrations of the porphyrin derivatives in the n-octanol and in the PBS.

[3] = Dynamic light scattering and zeta potential of PS-Pluronic L121 micelles; type: physicochemical; conditions: Pluronic L121-based formulation, DLS, homogeneous distribution
Protocol: Micellar formulations with Pluronic […] were prepared according to a method recently described. The micelles were characterized by Dynamic Light Scattering (DLS) using a Malvern Zetaziser Nano ZS system. The apparent diffusion coefficients of the micelles were obtained from the normalized time correlation function of the scattered electric field, g(1)(τ), using the cumulants analysis. An average value was obtained from repeated measurements for each sample (N = 3).

A549 cells = experiment: Dark cytotoxicity, MTT; type: cell-based, human; conditions: A549, 100 μM, 24 h
Protocol: (§1) The studies were performed on human lung adenocarcinoma (A549), murine colon carcinoma (CT26) and murine endothelial/vascular epithelium (2H11) cell lines. A549, CT26 and 2H11 cells were grown in full-strength DMEM with 4.5 g/L glucose, L-glutamine, sodium pyruvate and 3.7 g/L NaHCO3 (BioTech) with addition of 10% fetal bovine serum (BioTech, Poland) and supplemented by antibiotics (penicillin/streptomycin). Before the experiments, the cells were washed with PBS, removed by trypsinization, then re-plated into microplate (or culture flask) with appropriate cells density and maintained in a humidified atmosphere at 37 °C and 5% CO2.
(§2) MTT cytotoxicity assay (which determines the mitochondrial activity), based upon the ability of living cells to reduce (3-(4,5-dimethylthiazol-2-yl)2,5-diphenyl tetrazolium bromide (MTT) into formazan was used to assess photosensitizer-mediated cytotoxicity. Two identical 96-well plates with A549, CT26 or 2H11 cell cultures seeded on 96-plate microplate (10^4 per well) were used for each experiment. When the cells were attached to the plates, PS solution in growth medium (DMSO<0.5%) at concentrations between 0.1 to 100 μM was added to the culture. Treated cultures were incubated for optimal time (estimated experimentally) at 37°C in the dark. […] Data were expressed as mean absorbance value of six samples and standard error of the mean.

2H11 cells = experiment: Dark cytotoxicity, MTT; type: cell-based, murine; conditions: 2H11, 100 μM, 24 h
Protocol: as §1, §2

CT26 cells = experiment: Dark cytotoxicity, MTT; type: cell-based, murine; conditions: CT26, 100 μM, 24 h
Protocol: as §1, §2

E. coli (K12) = experiment: Photodynamic inactivation of microorganisms, CFU; type: cell-based; conditions: PDI 10 J/cm^2, 420±20 nm, concentration not given
Protocol: (§3) The microorganisms used in PDI were: S. aureus (8325–4), E. faecalis (ATCC29212), E. coli (K12), P. aeruginosa (ATCC19660), S. marcescens (ATCC14756) and C. albicans (DAY286). The planctonic bacteria cells were cultured in brain heart infusion broth (Sigma-Aldrich) and LB Broth/Lennox (BioShop Lab Science Products) in an orbital incubator (37°C, 130 rpm), until the optical density reached 0.5, which corresponds to approximately 10^7 CFU per mL. The fungal yeasts were cultured in YPD Broth (BioShop) with overnight aeration at 30°C to reach ca. 10^6 CFU/mL. For PDI experiments cell suspensions of bacteria or fungal yeasts were incubated with various concentrations of the porphyrins at pH 7.4 (PBS) for 1 h in the dark at room temperature. Aliquots (1 mL) were transferred to a 12-well plate and illuminated with a blue light. We used blue-LED array (420±20 nm) to deliver a light dose of 10 J/cm^2 (measured with a power meter). Cells treated with photosensitizers in the dark were incubated covered with aluminum foil for the same time as the PDI groups (1 h). After illumination (or dark incubation) samples were shaken, diluted in PBS, mixed and plated (LB agar). Aliquots were taken from each well to determine the CFU value. Plates were streaked in triplicate and incubated for 12–36 h at 30 °C (for fungal yeasts) or 37 °C (for bacteria) in the dark to allow colony formation.

[4] = system: P. aeruginosa (ATCC19660); experiment: Photodynamic inactivation of microorganisms, CFU; type: cell-based; conditions: PDI 10 J/cm^2, 420±20 nm, concentration not given
Protocol: as §3

S. aureus (8325–4) = experiment: Photodynamic inactivation of microorganisms, CFU; type: cell-based; conditions: 20 μM, 10 min irradiation (10 J/cm^2, 420±20 nm)
Protocol: as §3

With O=S(=O)(O)c1ccc(F)c(-c2c3nc(c(-c4c(F)ccc(S(=O)(=O)O)c4F)c4ccc([nH]4)c(-c4c(F)ccc(S(=O)(=O)O)c4F)c4nc(c(-c5c(F)ccc(S(=O)(=O)O)c5F)c5ccc2[nH]5)C=C4)C=C3)c1F [F2POH, 5,10,15,20-tetrakis(2,6-difluoro-3-sulfophenyl)porphyrin] the “Absorption λmax, Qx (0,1)” value [1] was 584 nm, the “Absorption λmax, Qx(0,0)” value [1] was 638 nm and the “Absorption λmax, Qy (0,0)” value [1] was 532 nm. For the same compound, the “Absorption λmax, Qy (0,1)” value [1] was 508 nm, the “Absorption λmax, B(0,0)” value ([1]; Soret band) was 420 nm and the logP [2] was -1.74. The “Particle Diameter (hydrodynamic diameter)” value [3] was “ca. 115 nm”, the “Cytotoxicity in the dark” value (A549 cells) was 25% and the “Cytotoxicity in the dark” value (2H11 cells) was 25%. The “Cytotoxicity in the dark” value (CT26 cells) was 25%, the Decrease in survival (E. coli (K12)) was 1.5–2 logs and the “Decrease in survival / bacteria CFU killing” value [4] was 1.5–2 logs. The “Reduction in colony forming units (CFU)” value (S. aureus (8325–4)) was 6 logs.
